Source: article PMC9605497, “Potential of Epidermal Growth Factor-like Peptide from the Sea Cucumber Stichopus horrens to Increase the Growth of Human Cells: In Silico Molecular Docking Approach” (Marine Drugs, 2022)

Tested on: EGF/PDGF pathway genes
Assay: qPCR array of EGF/PDGF pathway genes
Type: cell-based, human
Set-up: key to expression class: +: Maximum expression; −: Minimum expression; unc.: Unchanged
Conditions: 10 nM, 4 h; for fold change: vs serum-free medium
Procedure: Cells were seeded at 80,000 cells per well of 24-well plates in 400 µL of complete growth medium. Cells were grown in MEM basal medium supplemented with 10% FBS and 1% antibiotic–antimycotic in a humidified incubator at 37 °C, equilibrated with 5% CO2. After 24 h of culture, the medium was removed, washed once with PBS, replaced with serum-free medium and left to culture for another 16 h. Medium was removed and replaced with corresponding treatment medium each in triplicates; 10 nM and 50 nM of Sh-EGFl-1, 10 nM and 50 nM of rhEGF were used as a positive control and serum-free medium was used as a negative control. Cells were harvested after 4 h. Medium was removed and 200 μL of Trizol reagent (Thermo Scientific, Waltham, MA, USA) was immediately added.
RNA extraction was performed according to Trizol reagent manufacturer’s protocol. An elution volume of 15 μL RNase-free water was added before the concentration and purity were determined using NanoDrop.
A total of 100 ng RNA was used initially for the cDNA synthesis reaction. The reaction was carried out according to RT^2 First Strand Kit’s protocol (Qiagen, Venlo, Netherlands). Genomic DNA was removed according to the manufacturer’s protocol prior to cDNA strand generation.
The 10 μL cDNA of human skin cells was diluted with 91 μL prior to qPCR reaction. Primer pairs of 84 genes involved in the EGF pathway, five housekeeping genes such as ribosomal protein large, P0 (RPL0), glyceraldehyde-3-phosphate-dehydrogenase (GAPDH), beta-actin (ACTB), beta-2-microglobulin (B2M) and hypoxanthine phosphoribosyltransferase 1 (HPRT1), one positive control gene for genomic DNA contamination, three reverse transcription control genes and three PCR-positive controls were included in the Qiagen PAHS-040ZA qPCR array plate (Qiagen, Venlo, Netherlands). A list of all genes analyzed in this study is available in Supplementary Materials Table S7. The mixture reaction was prepared according to the protocol and run using BioRad CFX96TM. Samples of 10 nM rhEGF and 10 nM Sh-EGFl-1 were prepared in duplicates. The following thermal profile was applied: 1 cycle at 95 °C for 10 min, 40 cycles at 95 °C for 15 s, 60 °C for 1 min, with the ramp rate from 95 °C to 60 °C was set at 1 °C every second. The data were then analyzed through Qiagen web portal. Data for serum-free medium were selected as a control group and the differences in gene expression between control and treatment groups were calculated using the 2^(−delta delta CT) method. The difference, known as fold change, was obtained from the delta delta CT values, which are the genes of interest and the average housekeeping genes, followed by the delta delta CT (delta CT (treatment group)—delta CT (control group)).

[1] = IKBKB (IKK), PLC gamma signaling
[2] = PLCG1 (PLC), PLC gamma signaling
[3] = PPP2CA (TSC2), PLC gamma signaling
[4] = RASA1 (p120GAP), MAPK signaling
[5] = RPS6KA5 (p70S6K), MAPK signaling
[6] = RPS6KA5 (p70S6K), PI3K signaling
[7] = RPS6KA5 (p70S6K), PLC gamma signaling
[8] = RPS6KB1 (p70S6K), MAPK signaling
[9] = RPS6KB1 (p70S6K), PI3K signaling
[10] = RPS6KB1 (p70S6K), PLC gamma signaling

H-MNSDSECPLSHDGYCLHDGVCMYIEALDKYACNCVVGYIGERCQYRDLKWWELR-OH (disulfide) [rhEGF, Recombinant human EGF purchased from Thermo Scientific, reference compound]
gene expression profile, EGF/PDGF pathway (qPCR array heat map): opposite gene expression profile | expression class (AKT1, PI3K signaling): − | fold change (AKT1, PI3K signaling): (0.69) | expression class (AKT3, PI3K signaling): − | fold change (AKT3, PI3K signaling): (0.87) | expression class (ATF1, MAPK signaling): − | fold change (ATF1, MAPK signaling): (0.87) | expression class (ATF2, MAPK signaling): − | fold change (ATF2, MAPK signaling): (0.67) | expression class (CASP3, MAPK signaling): − | fold change (CASP3, MAPK signaling): (0.70) | expression class (CASP9, MAPK signaling): − | fold change (CASP9, MAPK signaling): (0.63) | expression class (CBL, MAPK signaling): − | fold change (CBL, MAPK signaling): (0.96) | expression class (CCND1, PI3K signaling): − | fold change (CCND1, PI3K signaling): (0.83) | expression class (DUSP1, MAPK signaling): − | fold change (DUSP1, MAPK signaling): (0.50) | expression class (DUSP6, MAPK signaling): − | fold change (DUSP6, MAPK signaling): (0.74) | expression class (E1F4E, PI3K signaling): + | fold change (E1F4E, PI3K signaling): (1.24) | expression class (ELK1, JAK-STAT signaling): − | fold change (ELK1, JAK-STAT signaling): (0.77) | expression class (FOS, JAK-STAT signaling): − | fold change (FOS, JAK-STAT signaling): (1.02) | expression class (GAB1, PI3K signaling): + | fold change (GAB1, PI3K signaling): (0.88) | expression class (GRB2, PI3K signaling): − | fold change (GRB2, PI3K signaling): (0.76) | expression class (GSK3A, PI3K signaling): − | fold change (GSK3A, PI3K signaling): (0.75) | expression class (GSK3B, PI3K signaling): − | fold change (GSK3B, PI3K signaling): (0.84) | expression class (HRAS, MAPK signaling): − | fold change (HRAS, MAPK signaling): (0.62) | expression class (IKBKB (IKK), PI3K signaling): − | fold change (IKBKB (IKK), PI3K signaling): (0.73) | expression class [1]: − | fold change [1]: (0.73) | expression class (IKBKB, MAPK signaling): − | fold change (IKBKB, MAPK signaling): (0.73) | expression class (JAK1, JAK-STAT signaling): − | fold change (JAK1, JAK-STAT signaling): (0.77) | expression class (JUN, JAK-STAT signaling): unc. | fold change (JUN, JAK-STAT signaling): (0.98) | expression class (MAP2K1 (MEK1), MAPK signaling): − | fold change (MAP2K1 (MEK1), MAPK signaling): (0.74) | expression class (MAP2K4 (MKK4), MAPK signaling): − | fold change (MAP2K4 (MKK4), MAPK signaling): (0.51) | expression class (MAP2K7 (MKK7), MAPK signaling): + | fold change (MAP2K7 (MKK7), MAPK signaling): (0.95) | expression class (MAP3K2 (MEKK2), MAPK signaling): − | fold change (MAP3K2 (MEKK2), MAPK signaling): (0.82) | expression class (MAPK1 (ERK2), MAPK signaling): − | fold change (MAPK1 (ERK2), MAPK signaling): (0.76) | expression class (MAPK3 (ERK1), MAPK signaling): − | fold change (MAPK3 (ERK1), MAPK signaling): (0.79) | expression class (MAPK8, MAPK signaling): − | fold change (MAPK8, MAPK signaling): (0.73) | expression class (MAPK9, MAPK signaling): − | fold change (MAPK9, MAPK signaling): (0.54) | expression class (MAPK10, MAPK signaling): + | fold change (MAPK10, MAPK signaling): (1.24) | expression class (MKNK1, MAPK signaling): − | fold change (MKNK1, MAPK signaling): (0.54) | expression class (NFATC3, MAPK signaling): − | fold change (NFATC3, MAPK signaling): (0.96) | expression class (NFKB, PI3K signaling): − | fold change (NFKB, PI3K signaling): (0.90) | expression class (NFKB, PLC gamma signaling): − | fold change (NFKB, PLC gamma signaling): (0.90) | expression class (P13KCA, PI3K signaling): − | fold change (P13KCA, PI3K signaling): (1.08) | expression class (PDPK1 (PDK1), PI3K signaling): − | fold change (PDPK1 (PDK1), PI3K signaling): (0.86) | expression class (PIK3R1, PI3K signaling): − | fold change (PIK3R1, PI3K signaling): (0.80) | expression class (PIK3R2, PI3K signaling): − | fold change (PIK3R2, PI3K signaling): (0.75) | expression class [2]: − | fold change [2]: (0.89) | expression class [3]: − | fold change [3]: (0.69) | expression class (PRKCA, PLC gamma signaling): − | fold change (PRKCA, PLC gamma signaling): (0.78) | expression class (RAP1A, MAPK signaling): − | fold change (RAP1A, MAPK signaling): (0.80) | expression class [4]: − | fold change [4]: (0.83) | expression class (RHOA, Rho signaling): − | fold change (RHOA, Rho signaling): (0.84) | expression class [5]: unc. | fold change [5]: (0.75) | expression class [6]: unc. | fold change [6]: (0.75) | expression class [7]: unc. | fold change [7]: (0.75) | expression class [8]: − | fold change [8]: (0.68) | expression class [9]: − | fold change [9]: (0.68) | expression class [10]: − | fold change [10]: (0.68) | expression class (SHC1, MAPK signaling): − | fold change (SHC1, MAPK signaling): (0.80) | expression class (SHC1, PI3K signaling): − | expression class (SRC, JAK-STAT signaling): + | fold change (SRC, JAK-STAT signaling): (1.16) | expression class (STAT3, JAK-STAT signaling): − | fold change (STAT3, JAK-STAT signaling): (0.89) | expression class (STAT5, JAK-STAT signaling): − | fold change (STAT5, JAK-STAT signaling): (0.89) | expression class (TP53, MAPK signaling): unc. | fold change (TP53, MAPK signaling): (0.82) | expression class (TP53, PI3K signaling): unc. | fold change (TP53, PI3K signaling): (0.82)
